Test results from patent US20260034253A1, “NECTIN-4 MINIPROTEIN CONJUGATES” (Aktis Oncology, Inc., priority 2022, published 2026).
Numbered stars: 1 amine (or outer) side, 2 acyl side, 3 side chain; on linkers, the order of the positions; unused ones are H or OH. Bridge positions count the residues as written; N and C are the ends. Square brackets hold non-standard residues; d marks the D form. Ends that are not written are not given here. * marks the point of attachment. Biotin = O=C1N[C@H]2[C@H](CS[C@H]2CCCCC(=O)*)N1; X1 = O=C([C@H](CCCCO)N[*:1])[*:2]; Cit = NC(=O)NCCC[C@H](N)C(=O)O; PEG4 = NCCOCCOCCOCCOCCC(=O)O

Target: T1, human Nectin-4 (Homo sapiens, UniProt Q96NY8)
T1 sequence (Q96NY8 32-510): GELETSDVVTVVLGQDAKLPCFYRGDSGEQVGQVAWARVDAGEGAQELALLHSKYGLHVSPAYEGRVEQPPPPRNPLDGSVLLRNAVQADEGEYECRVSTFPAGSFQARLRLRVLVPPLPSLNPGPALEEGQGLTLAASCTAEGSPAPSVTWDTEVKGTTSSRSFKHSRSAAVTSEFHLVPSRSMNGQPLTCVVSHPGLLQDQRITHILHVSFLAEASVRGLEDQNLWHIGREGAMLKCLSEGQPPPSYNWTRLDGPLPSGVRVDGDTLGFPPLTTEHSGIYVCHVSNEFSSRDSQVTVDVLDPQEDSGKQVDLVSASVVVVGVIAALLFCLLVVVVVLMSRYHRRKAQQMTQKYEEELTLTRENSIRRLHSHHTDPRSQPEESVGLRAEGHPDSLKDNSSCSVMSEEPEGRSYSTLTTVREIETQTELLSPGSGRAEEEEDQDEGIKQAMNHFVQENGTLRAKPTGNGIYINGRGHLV
Assay: Surface plasmon resonance (Biacore T200) binding to human Nectin-4
Conditions: Table 2B, binding affinities of exemplary compounds to Nectin-4, read-out: Binding Affinity
Procedure: Peptide binding affinity to the target protein was measured by SPR using a Biacore T200 instrument. The target protein was covalently coupled to a Biacore chip surface using free amine-coupling chemistry (NHS/EDC) and all uncoupled sites were blocked with ethanolamine. Free peptides were flowed over the target protein surface in increasing concentrations to measure association (KA) and dissociation ([…]) to calculate the equilibrium dissociation constant (KD) using an appropriate binding model (see, e.g., Nikolas Stroth, J Biol Methods. 2016; 3 (1)).
In all figures (FIGS. 1A, 1B, 2A, and 2B), lines on graphs are labeled from top to bottom, beginning with letter “a,” and the corresponding concentration is noted to the right of the figure, next to the letter designating each line.
Surface plasmon resonance (SPR) analyses were performed using Biacore T200 (GE Healthcare). Target protein (“ligand”) was immobilized to a CM5 Series S sensor chip (Cytiva) using amine-coupling chemistry. Running buffer was 0.05% Surfactant P20 in HEPES buffered saline (HBS-P), pH 7.4 (Cytiva). Immobilization was performed at 25° C. Carboxyl groups in each flow cell were activated using a 1:1 mixture of 0.4 M 1-ethyl-3-(3-dimethylaminopropyl)-carbodiimide in water (EDC) and 0.1 M N-hydroxysuccinimide in water (NHS) for 7 minutes. The ligand was prepared in 10 mM Sodium acetate pH 5 (Cytiva). Pulsatile injections were made to target a specific immobilization level. Any remaining amine-reactive esters on the chip surface were blocked with a 7-minute injection of 1 M ethanolamine, pH 8.5. Three 10-second pulses of 50 mM Sodium hydroxide were then made to remove any unbound ligand. Reference cells were modified using amine coupling chemistry, omitting ligand injection.
Increase in signal (RU) is proportional to an increase in binding events between the analyte and ligand surface. The injection was then stopped, and dissociation was measured. The resulting sensorgram has reference surface and blank injection subtracted prior to curve fitting. Measured association (ka, 1/M^s−1) and dissociation (kd, s^−1) were fit to a 1:1 binding model to calculate an equilibrium dissociation constant, KD(M) for each analyte. Equilibrium binding constants (KD) and binding inhibition constants (Ki) estimated from surface plasmon resonance (SPR) or DELFIA® binding assays for exemplary compounds as set forth in Table 2A.
In this example, affinity for mouse Nectin-4 (FIG. 3A) and human Nectin-4 (FIG. 3B) were measured using a 1:1 binding model at twenty-five degrees Celsius. In both of FIGS. 3A and 3B, lines on graphs were labeled from top to bottom, beginning with letter a, and the corresponding concentration was noted to the right of the figure.

`CC[C@H](C)[C@@H]1NC(=O)[C@H](Cc2ccc(O)cc2)NC(=O)[C@H](CO)NC(=O)[C@@H]2CSSC[C@@H](C(=O)N[C@@H](CO)C(=O)O)NC(=O)CNC(=O)[C@H](CC(C)C)NC(=O)[C@H](CC(N)=O)NC(=O)[C@H](CC(=O)O)NC(=O)[C@H](CC(C)C)NC(=O)[C@H]([C@@H](C)CC)NC(=O)[C@H](CCC(=O)O)NC(=O)[C@H](CCC(=O)O)NC(=O)[C@H]([C@@H](C)CC)NC(=O)[C@H](CSSC[C@H](NC(=O)CCOCCOCCOCCOCCNC(=O)CCCC[C@@H]3SC[C@@H]4NC(=O)N[C@@H]43)C(=O)N[C@@H](CCC(=O)O)C(=O)N[C@@H](Cc3ccc(O)cc3)C(=O)N[C@@H](CC(=O)O)C(=O)N[C@@H](CCC(=O)O)C(=O)N[C@@H](CCC(=O)O)C(=O)N[C@@H](Cc3ccccc3)C(=O)N[C@@H](Cc3ccccc3)C(=O)N[C@@H]([C@@H](C)O)C(=O)N[C@@H](C)C(=O)N[C@@H](CC(C)C)C(=O)N[C@@H](CCCCN)C(=O)N[C@@H](CCCNC(=N)N)C(=O)N[C@@H](CC(C)C)C(=O)N[C@@H](CCCNC(=N)N)C(=O)NCC(=O)NCC(=O)N[C@@H](CC(=O)O)C(=O)N[C@@H]([C@@H](C)CC)C(=O)N2)NC(=O)[C@H](CC(C)C)NC(=O)CNC(=O)[C@@H]2CCCN2C(=O)[C@H](CC(C)C)NC(=O)[C@H](Cc2ccc(O)cc2)NC(=O)[C@H](CCC(N)=O)NC(=O)[C@H](Cc2ccccc2)NC(=O)[C@H](CO)NC(=O)[C@H](C)NC(=O)[C@H](CCC(N)=O)NC1=O` [Compound C179] and “{Biotin-PEG4}-CDYDEEFFTALKRLRGDDICEYIQASFQYLPGLCIEEILDNLGCS-OH (disulfide 1-34, 20-44) [Compound C191]” are within 1.5-fold of each other in Kd: 1.8 nM for the first, 1.4 nM for the second.

“{Biotin-PEG4}-CDYDEEFFTALKRLRGGDICSYIQASFQYLPGLCIEEILDNLGCS (disulfide 1-34, 20-44) [Compound C189]” and “{Biotin-PEG4}-CDYDEQFFTALKRLRGDDICEYIQASFQYLPGLCIEEILDNLGCS (disulfide 1-34, 20-44) [Compound C193]” are within 1.5-fold of each other in Kd: 1.1 nM for the first, 1 nM for the second.

First: {Biotin-PEG4}-CEYDEEFFTALAQLRGGDICYYIQAKFQYLPGLCIEEILDNLGCS (disulfide 1-34, 20-44) [Compound C162]
Second: {Biotin-PEG4}-CEYDEEFFTALARLRGADICYYIQAKFQYLPGDCIEEILDNLGCS (disulfide 1-34, 20-44) [Compound C140]
The Kd of the first is 8-fold higher: 8.8 nM for the first, 1.1 nM for the second. The second binds more tightly here.

“{Biotin-PEG4}-CEYDEEFFTALARLRGGDICDYIQAKFQYLPGLCIAEILDNLGCS (disulfide 1-34, 20-44) [Compound C157]” and “{Biotin-PEG4}-CEYDEEFFTALARLRGGDICEYIQAKFQYLEGLCIEEILDNLGCS-OH (disulfide 1-34, 20-44) [Compound C150]” are within 1.5-fold of each other in Kd: 1.1 nM for the first, 1 nM for the second.

Going from “{Biotin-PEG4}-CEYDEEFFTALARLRGGDICQYIQAKFQYLPGQCIEEILDNLGCS-OH (disulfide 1-34, 20-44) [Compound C149]” to “{Biotin-PEG4}-CEYDEEFFTALARLRGGDICYYILAKFQYLPGECIEEILDNLGCS (disulfide 1-34, 20-44) [Compound C145]”, the Kd rises from 0.75 nM to 1.3 nM (1.7-fold). The first binds more tightly here.

Going from “{Biotin-PEG4}-CEYDEEFFTALARLRGGDICYYIQAKFQYLPKLCIEEILDNLGCS (disulfide 1-34, 20-44) [Compound C166]” to “{Biotin-PEG4}-CEYDEEFFTALARLRGGDICYYIQA[X1]FQYLPGLCIEEILDNLGCS-OH (disulfide 1-34, 20-44) [Compound C164]”, the Kd rises from 0.75 nM to 5 nM (6.7-fold). The first binds more tightly here.

Going from “{Biotin-PEG4}-CEYDEEFFTALARLRGSDICLYIQAKFQYLPGLCIEEILDNLGCS (disulfide 1-34, 20-44) [Compound C156]” to “{Biotin-PEG4}-CEYDEEFFTALASLRGGDICYYIQAKFQYLPGLCIEEILDNLGCS-OH (disulfide 1-34, 20-44) [Compound C161]”, the Kd rises from 1.1 nM to 7.5 nM (6.8-fold). The first binds more tightly here.

First: {Biotin-PEG4}-CEYDEEFFTALA[Cit]LRGDDICSYIQA[X1]FQYLPGLCIEEILDNLGCS-OH (disulfide 1-34, 20-44) [Compound C170]
Second: {Biotin-PEG4}-CEYDEEFFTALKRLRGADICDYIQASFQYLPGLCIEEILDNLGCS (disulfide 1-34, 20-44) [Compound C195]
The Kd of the first is 3.8-fold higher: 8.8 nM for the first, 2.3 nM for the second. The second binds more tightly here.

“{Biotin-PEG4}-CEYDEEFFTALKRLRGDDICSYIQASFQYLPGLCIEEILDNLGCS (disulfide 1-34, 20-44) [Compound C182]” and “{Biotin-PEG4}-CEYDEEFFTALKRLRGGDICDYIQASFQYLPGECIEEILDNLGCS (disulfide 1-34, 20-44) [Compound C203]” are within 1.5-fold of each other in Kd: 3 nM for the first, 2.3 nM for the second.

“{Biotin-PEG4}-CEYDEEFFTALKRLRGGDICDYIQASFQYLPGLCIEEILDNLGCS-OH (disulfide 1-34, 20-44) [Compound C200]” and “{Biotin-PEG4}-CEYDEEFFTALKRLRGGDICEYIQAAFQYLPGLCIEEILDNLGCS (disulfide 1-34, 20-44) [Compound C198]” are within 1.5-fold of each other in Kd: 2 nM for the first, 2.3 nM for the second.

Going from “{Biotin-PEG4}-CEYDEEFFTALKRLRGGDICEYIQASFQYLPGECIEEILDNLGCS (disulfide 1-34, 20-44) [Compound C202]” to “{Biotin-PEG4}-CEYDEQFFTALKRLRGADICEYIQASFQYLPGLCIEEILDNLGCS (disulfide 1-34, 20-44) [Compound C183]”, the Kd falls from 2.2 nM to 1.2 nM (1.8-fold).

Going from “{Biotin-PEG4}-CEYDEQFFTALKRLRGADICSYIQASFQYLPGLCIEEILDNLGCS (disulfide 1-34, 20-44) [Compound C185]” to “{Biotin-PEG4}-CEYDGEFFTALARLRGADICEYIQAKFQYYPGLCIEEILDNLGCS (disulfide 1-34, 20-44) [Compound C144]”, the Kd rises from 1 nM to 3.7 nM (3.7-fold). The first binds more tightly here.

“{Biotin-PEG4}-CEYDGEFFTALARLRGGDICQYIQAKFQYLPGLCIEEILDNLGCS-OH (disulfide 1-34, 20-44) [Compound C158]” gave a Kd of 1.1 nM.
